Test results published in ChEMBL document CHEMBL3091436, “4-Bicyclic heteroaryl-piperidine derivatives as potent, orally bioavailable Stearoyl-CoA desaturase-1 (SCD1) inhibitors. Part 1: urea-based analogs” (Bioorg Med Chem Lett, 2013).

How the values were obtained:
[1] = Oral bioavailability in rat at 10 mg/kg; type: ADME, organism-based; conditions: in vivo
[2] = system: Mus musculus; assay: Hepatotoxicity in DIO C57BL/6 mouse assessed as plasma ALT level at 10 mg/kg, po qd after 10 days (reference value: 58 +/- 5 U/L); type: toxicity, organism-based; design: dose 10 mg/kg, route oral; conditions: in vivo, 240 h
[3] = Clearance in rat at 10 mg/kg, po; type: ADME, organism-based; design: dose 10 mg/kg, route oral; conditions: in vivo
[4] = AUC (24 hrs) in rat at 2 mg/kg, iv; type: ADME, organism-based; design: time < 24 hr, dose 2 mg/kg, route intravenous; conditions: plasma
[5] = Half life in rat at 10 mg/kg, po; type: ADME, organism-based; design: dose 10 mg/kg, route oral; conditions: in vivo
[6] = Cmax in rat at 10 mg/kg, po; type: ADME, organism-based; design: dose 10 mg/kg, route oral; conditions: in vivo
[7] = target: T1, Stearoyl-CoA desaturase (Homo sapiens) (UniProt O00767); assay: Inhibition of SCD1 in human A431 cells assessed as conversion of 13C-palmitic acid to 13C-palmitoleic acid after 4 hrs by LC/MS analysis; type: cell-based; conditions: A-431
T1 sequence (whole entry): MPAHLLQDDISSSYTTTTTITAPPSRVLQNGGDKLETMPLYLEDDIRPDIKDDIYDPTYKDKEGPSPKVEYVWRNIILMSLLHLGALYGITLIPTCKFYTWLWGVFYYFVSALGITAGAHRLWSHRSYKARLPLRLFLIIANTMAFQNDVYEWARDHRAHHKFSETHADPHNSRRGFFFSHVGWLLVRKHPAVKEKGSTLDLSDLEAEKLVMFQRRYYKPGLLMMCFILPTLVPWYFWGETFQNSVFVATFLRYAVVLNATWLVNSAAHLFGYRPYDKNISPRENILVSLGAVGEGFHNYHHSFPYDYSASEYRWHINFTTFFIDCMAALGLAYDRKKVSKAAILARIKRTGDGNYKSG

[8] = Volume of distribution at steady state in rat at 2 mg/kg, iv; type: ADME, organism-based; design: dose 2 mg/kg, route intravenous; conditions: in vivo, read-out: Vdss
[9] = system: Mus musculus; assay: Antiobesity activity in DIO C57BL/6 mouse assessed as decrease in body weight gain at 30 mg/kg, po bid (reference value: 2.06 +/- 0.33 g); type: functional
[10] = system: Mus musculus; assay: Hepatotoxicity in DIO C57BL/6 mouse assessed as plasma ALT level at 30 mg/kg, po bid after 10 days (reference value: 58 +/- 5 U/L); type: toxicity, organism-based; design: dose 30 mg/kg, route oral; conditions: in vivo, 240 h
[11] = system: Mus musculus; assay: Hepatotoxicity in DIO C57BL/6 mouse assessed as plasma AST level at 30 mg/kg, po qd after 10 days (reference value: 99 +/- 9 U/L); type: toxicity, organism-based; design: dose 30 mg/kg, route oral; conditions: in vivo, 240 h
[12] = Cmax in DIO mouse at 30 mg/kg, po; type: ADME, organism-based; design: dose 30 mg/kg, route oral; conditions: in vivo
[13] = system: Mus musculus; assay: Antiobesity activity in DIO C57BL/6 mouse assessed as decrease in body weight gain at 10 mg/kg, po qd (reference value: 2.06 +/- 0.33 g); type: functional
[14] = Cmax in rat at 2 mg/kg, iv; type: ADME, organism-based; design: dose 2 mg/kg, route intravenous; conditions: in vivo
[15] = AUC (24 hrs) in rat at 10 mg/kg, po; type: ADME, organism-based; design: time < 24 hr, dose 10 mg/kg, route oral; conditions: plasma
[16] = system: Mus musculus; assay: Antiobesity activity in DIO C57BL/6 mouse assessed as decrease in body weight gain at 30 mg/kg, po qd (reference value: 2.06 +/- 0.33 g); type: functional
[17] = Half life in DIO mouse at 30 mg/kg, po; type: ADME, organism-based; design: dose 30 mg/kg, route oral; conditions: in vivo
[18] = system: Mus musculus; assay: Antiobesity activity in po dosed DIO C57BL/6 mouse assessed as decrease in body weight gain administered as qd/bid; type: functional, organism-based
[19] = Half life in rat at 2 mg/kg, iv; type: ADME, organism-based; design: dose 2 mg/kg, route intravenous; conditions: in vivo
[20] = AUC (24 hrs) in DIO mouse at 30 mg/kg, po; type: ADME, organism-based; design: time < 24 hr, dose 30 mg/kg, route oral; conditions: plasma
[21] = system: Mus musculus; assay: Hepatotoxicity in DIO C57BL/6 mouse assessed as plasma ALT level at 30 mg/kg, po qd after 10 days (reference value: 58 +/- 5 U/L); type: toxicity, organism-based; design: dose 30 mg/kg, route oral; conditions: in vivo, 240 h
[22] = system: Mus musculus; assay: Hepatotoxicity in DIO C57BL/6 mouse assessed as plasma AST level at 10 mg/kg, po qd after 10 days (reference value: 99 +/- 9 U/L); type: toxicity, organism-based; design: dose 10 mg/kg, route oral; conditions: in vivo, 240 h
[23] = system: Mus musculus; assay: Hepatotoxicity in DIO C57BL/6 mouse assessed as plasma AST level at 30 mg/kg, po bid after 10 days (reference value: 99 +/- 9 U/L); type: toxicity, organism-based; design: dose 30 mg/kg, route oral; conditions: in vivo, 240 h
[24] = target: T2, Acyl-CoA desaturase 1 (Rattus norvegicus) (UniProt P07308); assay: Inhibition of SCD1 in Sprague-Dawley rat liver microsomes using Stearoyl-[9,10-3H]-CoA as substrate assessed as [3H2O] generation at 1 uM
T2 sequence (whole entry): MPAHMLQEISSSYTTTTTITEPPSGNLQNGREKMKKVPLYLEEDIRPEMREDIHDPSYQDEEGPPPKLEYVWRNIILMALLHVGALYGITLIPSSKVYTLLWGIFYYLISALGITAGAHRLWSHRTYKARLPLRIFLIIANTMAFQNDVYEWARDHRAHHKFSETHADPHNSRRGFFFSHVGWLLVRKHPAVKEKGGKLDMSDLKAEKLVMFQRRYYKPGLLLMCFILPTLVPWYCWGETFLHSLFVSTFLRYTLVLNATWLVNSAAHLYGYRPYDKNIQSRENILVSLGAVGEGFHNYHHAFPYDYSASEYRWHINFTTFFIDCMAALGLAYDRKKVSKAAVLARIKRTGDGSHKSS

[25] = target: T3, Acyl-CoA desaturase 1 (Rattus norvegicus, UniProt P07308); assay: Inhibition of SCD1 in Sprague-Dawley rat liver microsomes using Stearoyl-[9,10-3H]-CoA as substrate assessed as [3H2O] generation
T3 sequence (P07308 whole entry): T2 sequence (whole entry)

Cc1csc(NC(=O)N2CCC(c3noc4ccc(F)cc34)CC2)n1
bioavailability [1]: 36.9%
Activity [2]: 57 U/L
CL/F [3]: 0.5 mL/min/kg
AUC at 24 h [4]: 49.8 µg·h/mL
half-life [5]: 6.3 h
Cmax [6]: 8800 ng/mL
IC50 [7]: 0.054 µM
Vd [8]: 0.19 L/kg
Activity [9]: -0.69 g
Activity [10]: 41 U/L
Activity [11]: 93 U/L
Cmax [12]: 14900 ng/mL
Activity [13]: 0 g
Cmax [14]: 9200 ng/mL
AUC at 24 h [15]: 118 µg·h/mL
Activity [16]: 0.01 g
half-life [17]: 3.1 h
Activity [18]: Dose-dependent effect
half-life [19]: 3.8 h
AUC at 24 h [20]: 169 µg·h/mL
Activity [21]: 68 U/L
Activity [22]: 89 U/L
Activity [23]: 102 U/L

CNC(=O)c1cccc(NC(=O)N2CCC(N3C(=O)Cc4ccccc43)CC2)c1
inhibition [24]: 7%

O=C(Nc1nc2c(s1)CCCC2)N1CCC(N2CCc3ccc(F)cc32)CC1
IC50 [7]: 0.076 µM

NC(=O)c1cnc(NC(=O)N2CCC(N3CCc4ccc(F)cc43)CC2)s1
IC50 [7]: 0.049 µM

Cc1csc(NC(=O)N2CCC(n3ccc4ccccc43)CC2)n1
IC50 [25]: 0.538 µM

Cc1csc(NC(=O)N2CCC(N3CCc4ccccc43)CC2)n1
IC50 [25]: 0.153 µM

O=C(Nc1nc2c(s1)CNCC2)N1CCC(N2CCc3ccc(F)cc32)CC1
IC50 [7]: 0.016 µM

O=C(Nc1nc2c(s1)CC(O)CC2)N1CCC(N2CCc3ccc(F)cc32)CC1 (stereo not given)
IC50 [25]: 0.014 µM
IC50 [7]: 0.001 µM

O=C(Nc1nc(CCO)cs1)N1CCC(N2CCc3ccc(F)cc32)CC1
IC50 [7]: 0.018 µM

O=C(Nc1nc(CO)cs1)N1CCC(N2CCc3ccc(F)cc32)CC1
IC50 [7]: 0.042 µM

Cc1cnc(NC(=O)N2CCC(N3CCc4ccc(F)cc43)CC2)s1
IC50 [7]: 0.108 µM

O=C1NCCn2nc(NC(=O)N3CCC(N4CCc5ccc(F)cc54)CC3)cc21
IC50 [25]: 0.018 µM
IC50 [7]: 0.03 µM

O=C(Nc1ncc(CO)s1)N1CCC(N2CCc3ccc(F)cc32)CC1
IC50 [7]: 0.154 µM

O=C(CO)N1CCc2nc(NC(=O)N3CCC(N4CCc5ccc(F)cc54)CC3)sc2C1
IC50 [7]: 0.113 µM

O=C(Nc1ncc(CCO)s1)N1CCC(N2CCc3ccc(F)cc32)CC1
IC50 [7]: 0.006 µM

CNC(=O)c1cccc(NC(=O)N2CCC(c3c[nH]c4ccccc34)CC2)c1
inhibition [24]: 15%

CNC(=O)c1csc(NC(=O)N2CCC(N3CCc4ccc(F)cc43)CC2)n1
inhibition [24]: 20%

O=C(Nc1nc2c(s1)COCC2)N1CCC(N2CCc3ccc(F)cc32)CC1
IC50 [7]: 0.017 µM

CC(=O)N1CCc2nc(NC(=O)N3CCC(N4CCc5ccc(F)cc54)CC3)sc2C1
inhibition [24]: 46%

CNC(=O)c1cnc(NC(=O)N2CCC(N3CCc4ccc(F)cc43)CC2)s1
IC50 [7]: 0.206 µM

Cc1csc(NC(=O)N2CCC(N3CCc4ccc(F)cc43)CC2)n1
IC50 [7]: 0.021 µM
